Assay results taken from ChEMBL document CHEMBL1131713, “Substituted piperidines--highly potent renin inhibitors due to induced fit adaptation of the active site” (Bioorg Med Chem Lett, 1999).
Calls of active or inactive are those of the source. No cut-off for these calls is given here.

What follows are compounds tested against T1, Cathepsin D (Bos taurus) (UniProt P80209) (assay: Inhibition against bovine cathepsin D; NA means no activity).
T1 sequence (whole entry): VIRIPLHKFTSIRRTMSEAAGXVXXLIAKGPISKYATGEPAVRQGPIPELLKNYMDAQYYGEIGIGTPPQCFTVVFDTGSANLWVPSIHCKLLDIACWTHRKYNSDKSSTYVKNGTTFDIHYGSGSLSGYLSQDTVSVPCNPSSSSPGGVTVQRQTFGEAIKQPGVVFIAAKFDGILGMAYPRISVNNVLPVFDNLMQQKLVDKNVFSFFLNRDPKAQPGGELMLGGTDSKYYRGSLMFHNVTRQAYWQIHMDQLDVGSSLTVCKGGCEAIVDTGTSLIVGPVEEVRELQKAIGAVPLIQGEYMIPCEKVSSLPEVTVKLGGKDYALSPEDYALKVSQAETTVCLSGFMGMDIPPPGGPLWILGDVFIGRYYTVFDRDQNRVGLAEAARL
In the case of `COc1ccc(COC2CNCCC2c2ccc(Cl)cc2)cc1` (racemic), the Activity is reported as “inactive”.

The compounds below were run against Human immunodeficiency virus type 1 protease (Human immunodeficiency virus 1) (UniProt Q72874) (assay: Inhibition against HIV protease; NA means no activity).
For `COc1ccc(COC2CNCCC2c2ccc(Cl)cc2)cc1` (racemic), the Activity was “inactive”.

The compounds below were run against Pepsin A (Sus scrofa) (UniProt P00791) (assay: Inhibition against porcine pepsin; NA means no activity).
Sequence of Pepsin A (Sus scrofa) (P00791 60-385 limits assumed): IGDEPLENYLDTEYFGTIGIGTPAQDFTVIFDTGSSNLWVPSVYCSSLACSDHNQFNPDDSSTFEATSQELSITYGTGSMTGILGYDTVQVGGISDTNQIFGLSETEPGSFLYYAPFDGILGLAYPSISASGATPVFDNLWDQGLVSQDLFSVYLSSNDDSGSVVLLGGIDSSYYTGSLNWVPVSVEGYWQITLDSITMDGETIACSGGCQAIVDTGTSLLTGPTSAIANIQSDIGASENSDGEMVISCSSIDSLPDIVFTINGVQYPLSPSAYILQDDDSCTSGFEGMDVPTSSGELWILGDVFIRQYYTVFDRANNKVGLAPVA
For `COc1ccc(COC2CNCCC2c2ccc(Cl)cc2)cc1` (racemic), the Activity was “inactive”.

Each compound was assayed against T2, Renin (Homo sapiens, UniProt P00797) (assay: In vitro inhibitory activity against purified recombinant human renin).
T2 sequence (P00797 whole entry): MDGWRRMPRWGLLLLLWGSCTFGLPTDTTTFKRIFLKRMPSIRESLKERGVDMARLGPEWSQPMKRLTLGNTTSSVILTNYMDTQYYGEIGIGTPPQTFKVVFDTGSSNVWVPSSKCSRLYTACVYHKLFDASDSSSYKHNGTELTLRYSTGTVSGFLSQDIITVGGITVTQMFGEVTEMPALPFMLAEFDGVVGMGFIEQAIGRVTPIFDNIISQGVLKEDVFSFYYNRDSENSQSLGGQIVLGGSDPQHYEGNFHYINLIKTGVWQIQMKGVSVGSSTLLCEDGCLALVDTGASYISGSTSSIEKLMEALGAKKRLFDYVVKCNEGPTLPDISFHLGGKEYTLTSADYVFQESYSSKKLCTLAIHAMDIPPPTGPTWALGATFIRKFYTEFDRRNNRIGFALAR
Compound `c1ccc(-c2noc(COc3ccc([C@H]4CCNC[C@@H]4OCc4ccc5ccccc5c4)cc3)n2)cc1` (racemic) has an IC50 of 0.041 µM. With `c1ccc(COCCCOc2ccc([C@H]3CCNC[C@@H]3OCc3ccc4ccccc4c3)cc2)nc1` (racemic) the IC50 was 0.21 µM. For `COc1ccccc1COCCCOc1ccc([C@H]2CCNC[C@@H]2OCc2cc(OC)c3ccccc3c2OC)cc1` (racemic), the IC50 was 6e-05 µM. `c1ccc(COCCOc2ccc([C@H]3CCNC[C@@H]3OCc3ccc4ccccc4c3)cc2)cc1` (racemic) was tested, and the IC50 was 0.053 µM. For `c1ccc(COCCCOc2ccc([C@H]3CCNC[C@@H]3OCc3ccc4ccccc4c3)cc2)cc1` (racemic), the IC50 was 0.008 µM. `O=C(OCCOc1ccc([C@H]2CCNC[C@@H]2OCc2ccc3ccccc3c2)cc1)c1cccnc1` (racemic) showed an IC50 of 0.58 µM. For `O=C(NCCOc1ccc([C@H]2CCNC[C@@H]2OCc2ccc3ccccc3c2)cc1)c1ccccc1` (racemic), the IC50 was 2.6 µM. Compound `c1cncc(-c2noc(COc3ccc([C@H]4CCNC[C@@H]4OCc4ccc5ccccc5c4)cc3)n2)c1` (racemic) has an IC50 of 0.88 µM. `c1ccc(COCCCOCc2ccc([C@H]3CCNC[C@@H]3OCc3ccc4ccccc4c3)cc2)cc1` (racemic) showed an IC50 of 0.74 µM. `c1ccc(OCCCCOc2ccc([C@H]3CCNC[C@@H]3OCc3ccc4ccccc4c3)cc2)cc1` (racemic) showed an IC50 of 0.22 µM. With `COc1ccc(C(=O)NCc2ccc([C@H]3CCNC[C@@H]3OCc3ccc4ccccc4c3)cc2)cc1` (racemic) the IC50 was over 1000 µM. `c1ccc(COCCCCOc2ccc([C@H]3CCNC[C@@H]3OCc3ccc4ccccc4c3)cc2)cc1` (racemic) was tested, and the IC50 was 0.1 µM. Compound `COc1ccc(CO[C@@H]2CNCC[C@H]2c2ccc(Cl)cc2)cc1` has an IC50 of 1200 µM. Compound `O=C(CCCOc1ccc([C@H]2CCNC[C@@H]2OCc2ccc3ccccc3c2)cc1)c1ccccc1` (racemic) has an IC50 of 0.22 µM. For `c1ccc(OCCCOCc2ccc([C@H]3CCNC[C@@H]3OCc3ccc4ccccc4c3)cc2)cc1` (racemic), the IC50 was 0.54 µM. `COc1cccc(C(=O)OCc2ccc([C@H]3CCNC[C@@H]3OCc3ccc4ccccc4c3)cc2)c1` (racemic) showed an IC50 of 0.087 µM. For `c1ccc(OCCOCc2ccc([C@H]3CCNC[C@@H]3OCc3ccc4ccccc4c3)cc2)cc1` (racemic), the IC50 was 0.16 µM. Compound `O=S(=O)(NCc1ccc([C@H]2CCNC[C@@H]2OCc2ccc3ccccc3c2)cc1)c1ccccc1` (racemic) has an IC50 of 40 µM. In the case of `c1ccc(COCCOCc2ccc([C@H]3CCNC[C@@H]3OCc3ccc4ccccc4c3)cc2)cc1` (racemic), the IC50 is reported as 0.091 µM. `O=C(OCCOc1ccc([C@H]2CCNC[C@@H]2OCc2ccc3ccccc3c2)cc1)c1ccccc1` (racemic) showed an IC50 of 0.026 µM. For `CC(C)(C)S(=O)(=O)C[C@@H](Cc1ccccc1)C(=O)N[C@@H](Cc1cnc[nH]1)C(=O)N[C@@H](CC1CCCCC1)[C@@H](O)[C@@H](O)C1CC1` [REMIKIREN], the IC50 was 2.5e-05 µM. `O=C(OCc1ccc([C@H]2CCNC[C@@H]2OCc2ccc3ccccc3c2)cc1)c1ccccc1` (racemic) gave an IC50 of 0.055 µM. `COc1ccc(CO[C@H]2CNCC[C@@H]2c2ccc(Cl)cc2)cc1` showed an IC50 of 26 µM. Compound `c1ccc(CCOCCOc2ccc([C@H]3CCNC[C@@H]3OCc3ccc4ccccc4c3)cc2)cc1` (racemic) has an IC50 of 0.16 µM. For `COc1ccc(COC2CNCCC2c2ccc(Cl)cc2)cc1` (racemic), the IC50 was 50 µM. With `COc1ccccc1COCCCOc1ccc([C@H]2CCNC[C@@H]2OCc2ccc3ccccc3c2)cc1` (racemic) the IC50 was 0.0015 µM.
